# Data reported in US20040191326A1, “Taste-masking vehicle for coated oxazolidinone particles” (priority 2003, published 2004).
# Where “and” joins values, the source holds several entries; their conditions need not be identical. Equal values may be shown once. Read-outs that look alike come from different tables or passages of the source.
# Key:
# [1] = Water activity (Pawkit water activity meter); type: physicochemical; details: sorbitol 9.9 molal, fructose 16.6 molal, sucrose 5.3 molal
# Description: A Pawkit water activity meter uses a dielectric humidity sensor to measure the water activity (aw) of a sample. The unit is accurate to ±0.02 aw. The water activity meter was calibrated, using a 6.0 molal NaCl solution, before each new set of measurements was taken. Each sample was measured in duplicate.
# [2] = Viscosity measurements (Bohlin Rheometer), screening and optimization phases; type: physicochemical; details: sorbitol 9.9 molal, fructose 16.6 molal, sucrose 5.3 molal (highest concentrations studied)
# Description: 2. Viscosity Measurements
# In the screening and optimization phases, described below, viscosity measurements were made using a Bohlin Rheometer, under the following conditions: a 10.0 pascal sheer stress and a continuous, single sweep type at a temperature of 25.0° C.
# [3] = cited from earlier work
SMILES,Water activity of solution [1],Viscosity of solution [2],Dosage with laxative effect ([3]; adults) [grams/day],Dosage with laxative effect ([3]; children)
OC[C@@H](O)[C@@H](O)[C@H](O)[C@@H](O)CO [sorbitol],0.81,48 cps,≥ 20,greater than 0.5 g/kg body weight
O=C(CO)[C@@H](O)[C@H](O)[C@H](O)CO [fructose],0.70,429 cps and 439 cps,,
OC[C@H]1O[C@@](CO)(O[C@H]2O[C@H](CO)[C@@H](O)[C@H](O)[C@H]2O)[C@@H](O)[C@@H]1O [sucrose],0.86,119 cps,,
